Experimental data from paper PMC4448982, “LP-925219 maximizes urinary glucose excretion in mice by inhibiting both renal SGLT1 and SGLT2” (Pharmacology Research & Perspectives, 2015).
Like-named read-outs stand apart in the source and are kept apart here.

Tests used:
dog SGLT2 = dog SGLT2 (Canis lupus familiaris, UniProt Q5U9C9); experiment: 14C-AMG uptake assay, cells expressing dog SGLT2; assay type: cell-based; conditions: mean ± SD
Description: (§1) Methods for generating cell lines expressing mouse, rat, and dog SGLT1 and SGLT2 are published (Powell et al. [2013b], [2014]). Full-length coding sequence of human SGLT1 (NP_000334) and human SGLT2 (NP_003032.1) with an HA-tag at the N-terminus were cloned into the mammalian expression vector pIRESpuro2 (Clontech, Mountain View, CA). HEK293 cells (ATCC, Manassas, VA) were transfected with the pIRESpuro2 vector containing human SGLT1 or SGLT2 and bulk stable cell lines were selected in the presence of 0.5 μg/mL of puromycin.
(§2) Cell lines expressing SGLT1 or SGLT2 were plated into poly-D-lysine-coated 384-well plates, and culture overnight in cell growth medium. Cells were washed, and then incubated in uptake buffer ([…], […] KCl, […] CaCl2, […] MgCl2, […] HEPES/Tris, 1 mg/mL of bovine serum albumin, pH7.4) containing [^14C]α-methylglucopyranoside (^14C-AMG), a nonmetabolizable glucose analog specific for sodium-dependent glucose transporters (Wright and Turk [2004]). The inhibition of SGLT1 or SGLT2 was determined by measuring SGLT1/2-mediated ^14C-AMG uptake in the presence of increasing compound concentrations of LP-925219. […] Standard sigmoidal dose–response model curves were fitted, and the IC50 value was computed as the LP-925219 concentration that inhibited the ^14C-AMG uptake by 50% between baseline and maximum uptake.

[1] = Pharmacokinetics in mice (intravenous and oral); assay type: in vivo; conditions: mouse
Protocol: Adult male C57BL/6J mice (25–35 g) were maintained on chow diet, had free access to water and were conscious through the study. LP-925219 was delivered by bolus intravenous administration at 1 mg/kg or by oral gavage at a dose of 10 mg/kg; 0.1% Tween-80 served as vehicle. Following intravenous injection, serial blood samples were collected in Ethylenediaminetetraacetic acid-containing tubes through 6 h. Following oral administration, serial blood samples were collected through 24 h. The plasma fraction was immediately separated by centrifugation at 4°C, and then stored at −20°C until sample analysis. To quantify LP-925219 concentrations, plasma samples were extracted with acetonitrile-water-formic acid (80:20:0.1) containing verapamil as internal standard at a concentration of 1 μmol/L. Extracted samples were analyzed by LC/MS-MS using a Surveyor HPLC system with a TSQ triple quadrupole mass spectrometer coupled with an Electrospray ionization source (Thermo Fisher Scientific, Waltham, MA). XCalibur 2.0 SR2 software (Thermo Fisher Scientific) was used for instrument control and data calculation. A rapid LC gradient with ammonium acetate […] (pH ∼6) and acetonitrile was used. Calculations were made by normalizing the area counts of compound to the area counts of the internal standard (relative area counts).
All plasma concentration versus time data for LP-925219 were analyzed using noncompartmental analysis, either extravascular administration (for oral administration) or bolus IV administration (for intravenous administration), of Phoenix™ WinNonlin® (version 6.3, Pharsight, Inc. Mountain View, CA). The half-life during the terminal phase was calculated from the elimination rate constant (λ) determined by the linear regression analysis of the log-linear part of the plasma concentration curve. The LP-925219 AUC0–t was calculated using linear up/log down trapezoidal method up to the last measured concentration at time t (Ct). AUC0–∞ was calculated as AUC0–t + Ct/λ. Clearance (CL) was calculated by dose/AUC0–∞. Other pharmacokinetic parameters included plasma peak concentration (Cmax), the time of Cmax (Tmax) and volume of distribution at steady state (Vss). Oral bioavailability (%F) was calculated by the equation: %F = (AUC0–∞ PO/AUC0–∞ IV) × (Dose IV/Dose PO).

mouse SGLT1 = molecular target: T1, mouse SGLT1 (Mus musculus, UniProt Q8C3K6); experiment: 14C-AMG uptake assay, HEK293 cells expressing mouse SGLT1; assay type: cell-based; conditions: mean ± SD
T1 construct: expressed in transfected cells; host or cells: HEK293 (per abstract)
T1 sequence (Q8C3K6 1-665): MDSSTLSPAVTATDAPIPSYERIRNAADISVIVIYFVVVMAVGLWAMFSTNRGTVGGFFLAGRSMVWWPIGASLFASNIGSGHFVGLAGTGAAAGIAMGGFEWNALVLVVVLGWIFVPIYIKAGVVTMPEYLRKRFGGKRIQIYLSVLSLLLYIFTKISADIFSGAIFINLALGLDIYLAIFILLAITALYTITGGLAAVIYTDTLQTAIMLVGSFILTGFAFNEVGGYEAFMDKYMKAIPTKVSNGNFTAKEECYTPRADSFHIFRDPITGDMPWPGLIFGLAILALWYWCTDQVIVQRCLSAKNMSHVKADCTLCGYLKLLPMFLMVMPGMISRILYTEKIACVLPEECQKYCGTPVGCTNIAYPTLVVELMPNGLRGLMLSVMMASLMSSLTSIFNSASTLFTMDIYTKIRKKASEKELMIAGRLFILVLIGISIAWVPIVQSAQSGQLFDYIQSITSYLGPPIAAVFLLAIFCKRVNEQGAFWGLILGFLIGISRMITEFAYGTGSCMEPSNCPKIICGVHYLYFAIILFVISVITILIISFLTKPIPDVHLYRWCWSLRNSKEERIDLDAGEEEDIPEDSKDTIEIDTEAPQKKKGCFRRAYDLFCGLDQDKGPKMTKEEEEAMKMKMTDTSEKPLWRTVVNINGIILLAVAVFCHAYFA
Description: as §1, §2

[2] = male, C57BL/6J, plasma, 1 mg/kg intravenous
[3] = male, C57BL/6J, plasma, 10 mg/kg oral

Chain of dog SGLT2 (Q5U9C9 entry or part of it): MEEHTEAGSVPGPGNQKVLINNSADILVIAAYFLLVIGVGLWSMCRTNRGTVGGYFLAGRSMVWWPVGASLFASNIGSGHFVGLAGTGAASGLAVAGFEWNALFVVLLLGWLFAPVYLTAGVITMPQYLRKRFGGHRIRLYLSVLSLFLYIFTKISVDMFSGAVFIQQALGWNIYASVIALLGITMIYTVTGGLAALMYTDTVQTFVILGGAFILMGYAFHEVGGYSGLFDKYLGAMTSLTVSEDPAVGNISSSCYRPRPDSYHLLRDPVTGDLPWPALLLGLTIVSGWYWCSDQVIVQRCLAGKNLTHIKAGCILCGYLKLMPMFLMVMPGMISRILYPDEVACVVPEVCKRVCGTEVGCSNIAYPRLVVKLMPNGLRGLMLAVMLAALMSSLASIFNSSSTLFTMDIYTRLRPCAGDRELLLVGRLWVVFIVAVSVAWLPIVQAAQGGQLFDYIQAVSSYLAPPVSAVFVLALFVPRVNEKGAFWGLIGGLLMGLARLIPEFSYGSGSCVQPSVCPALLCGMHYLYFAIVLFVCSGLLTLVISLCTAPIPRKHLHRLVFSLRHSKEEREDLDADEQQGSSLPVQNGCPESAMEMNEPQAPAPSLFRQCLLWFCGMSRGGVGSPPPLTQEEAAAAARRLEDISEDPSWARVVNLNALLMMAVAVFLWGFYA

Q: Which results are given for `COc1ccc(Cc2cc([C@@H]3O[C@H](SC)[C@@H](O)[C@H](O)[C@H]3O)ccc2Cl)cc1` [LP-925219]?
A: IC50 (dog SGLT2): 1 ± 0.3 nM; AUC(0-inf) [1, 2]: 1.41 ± 0.04 µM·h; AUC(0-t) [1, 2]: 1.214 ± 0.012 µM·h; Cmax [1, 2]: 1440 ± 97 nM; clearance [1, 2]: 29 ± 1 mL/min/kg; half-life [1, 2]: 2.8 ± 0.7 h; Vd ([1]; male, C57BL/6J, plasma, 1 mg/kg intravenous, read-out: Vss): 4.4 ± 0.6 L/kg; AUC(0-t) [1, 3]: 11.2 µM·h; Cmax [1, 3]: 3160 ± 802 nM; Tmax [1, 3]: 0.3 h; half-life [1, 3]: 7 ± 0.9 h; bioavailability ([1]; male, C57BL/6J, plasma, 10 mg/kg oral vs 1 mg/kg intravenous, read-out: %F): 87 ± 21%; concentration at 6 h ([1]; male, C57BL/6J, plasma, 10 mg/kg oral, 6 h, read-out: plasma level at 6 h postdosing): 617 ± 107 nM; concentration at 24 h ([1]; male, C57BL/6J, plasma, 10 mg/kg oral, 24 h, read-out: plasma level at 24 h post dosing): 100 ± 43 nM; bioavailability ([1]; male, C57BL/6J, plasma, 10 mg/kg oral, read-out: bioavailability (%F)): 87%; AUC0-∞ ([1]; 10 mg/kg oral): 12,214 ± 3037 nmo/L*h; plasma level at 24 h post dosing ([1]; 10 mg/kg oral, 24 h, 10 mg/kg): 100 nM; IC50 (mouse SGLT1): 22.6 ± 1 nM
